These results are taken from patent US20020082419A1, “2,4-pentadienoic acid derivatives having retinoid-like biological activity” (Allergan Sales, Inc., priority 1995, published 2002).

One assay has as its target T1, RARα (Homo sapiens, UniProt P10276).
T1 construct: expressed in transfected cells; host or cells: CV1 cells
T1 sequence (P10276 1-462): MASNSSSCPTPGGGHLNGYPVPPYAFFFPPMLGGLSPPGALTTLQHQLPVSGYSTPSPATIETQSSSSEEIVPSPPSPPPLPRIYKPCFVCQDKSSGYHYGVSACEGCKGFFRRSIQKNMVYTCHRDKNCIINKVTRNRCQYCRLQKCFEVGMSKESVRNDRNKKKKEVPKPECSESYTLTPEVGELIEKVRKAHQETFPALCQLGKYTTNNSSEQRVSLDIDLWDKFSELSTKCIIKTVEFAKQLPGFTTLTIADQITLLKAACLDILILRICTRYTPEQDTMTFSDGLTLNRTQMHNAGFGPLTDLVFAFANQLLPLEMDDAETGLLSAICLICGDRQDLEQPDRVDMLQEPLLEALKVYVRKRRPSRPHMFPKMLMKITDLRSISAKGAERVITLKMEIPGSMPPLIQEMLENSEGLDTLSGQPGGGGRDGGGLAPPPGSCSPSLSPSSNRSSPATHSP
Description: Holoreceptor transactivation assay, RARα. It is filed as cell-based. The following applies: for EC50: CV1 cells, luciferase reporter, 36 hours incubation; for Transactivation Assay Afficacy (% of RA activity) RARα: relative to all trans retinoic acid. The procedure: (§1) A description of the holoreceptor transactivation assay is also provided below.
(§2) (8). […] (8, 9). […] A β-galactosidase (50 ng) expression vector was used as an internal control in the transfections to normalize for variations in transfection efficiency. The cells were transfected in triplicate for 6 hours, followed by incubation with retinoids for 36 hours, and the extracts were assayed for luciferase and β-galactosidase activities. The detailed experimental procedure for holoreceptor transactivations has been described in Heyman et al. above, and Allegretto et al. cited above. […] The results of ligand binding assay are expressed in KD50 numbers.
Background: In a reporter assay the amount or activity of a reporter protein is the signal.

In another assay the target is T2, RARΓ (Homo sapiens, UniProt P13631).
T2 construct: expressed in transfected cells; host or cells: CV1 cells
T2 sequence (P13631 1-454): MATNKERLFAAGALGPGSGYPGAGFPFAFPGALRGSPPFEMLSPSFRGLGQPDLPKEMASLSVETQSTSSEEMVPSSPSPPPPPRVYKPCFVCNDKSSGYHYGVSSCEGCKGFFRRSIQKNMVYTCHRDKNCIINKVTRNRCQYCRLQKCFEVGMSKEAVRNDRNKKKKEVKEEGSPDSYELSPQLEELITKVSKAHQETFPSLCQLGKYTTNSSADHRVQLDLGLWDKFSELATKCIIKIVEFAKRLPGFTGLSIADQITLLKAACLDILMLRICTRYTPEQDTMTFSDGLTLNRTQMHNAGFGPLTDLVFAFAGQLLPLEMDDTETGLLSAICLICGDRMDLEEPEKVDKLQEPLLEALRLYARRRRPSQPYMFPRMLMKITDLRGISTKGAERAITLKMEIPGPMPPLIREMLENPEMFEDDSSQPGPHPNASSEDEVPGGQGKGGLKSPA
Description: Holoreceptor transactivation assay, RARΓ. It is filed as cell-based. The following applies: for EC50: CV1 cells, luciferase reporter, 36 hours incubation; for Transactivation Assay Afficacy (% of RA activity) RARΓ: relative to all trans retinoic acid. Here is the method:
as §1, §2

Assay [1] has as its target T3, RXRα (Homo sapiens, UniProt P19793).
T3 construct: expressed in transfected cells; host or cells: CV1 cells
T3 sequence (P19793 1-462): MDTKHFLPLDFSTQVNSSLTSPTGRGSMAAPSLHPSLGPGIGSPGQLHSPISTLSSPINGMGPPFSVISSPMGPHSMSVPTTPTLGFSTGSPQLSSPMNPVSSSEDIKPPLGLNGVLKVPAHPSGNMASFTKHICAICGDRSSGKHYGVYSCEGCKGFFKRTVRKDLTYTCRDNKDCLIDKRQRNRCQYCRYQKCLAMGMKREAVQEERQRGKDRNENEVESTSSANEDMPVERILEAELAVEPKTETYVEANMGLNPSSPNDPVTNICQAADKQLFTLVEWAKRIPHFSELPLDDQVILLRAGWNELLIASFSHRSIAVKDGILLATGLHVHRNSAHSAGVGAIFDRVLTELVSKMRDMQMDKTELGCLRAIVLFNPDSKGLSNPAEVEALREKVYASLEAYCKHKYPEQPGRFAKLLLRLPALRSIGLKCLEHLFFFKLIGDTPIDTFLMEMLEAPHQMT
Description: Holoreceptor transactivation assay, RXRα. It is filed as cell-based. The following applies: for EC50: CV1 cells, luciferase reporter, 36 hours incubation; for Transactivation Assay Afficacy (% of RA activity) RXRα: relative to all trans retinoic acid. The source says: (§3) A holoreceptor transactivation assay and a ligand binding assay which measure the agonist like activity of the compounds of the invention, or their ability to bind to the several retinoid receptor sub-types, respectively, are described in published PCT Application No. WO WO93/11755 (particularly on pages 30-33 and 37-41) published on Jun. 24, 1993, the specification of which is also incorporated herein by reference. A description of the holoreceptor transactivation assay is also provided below.
(§4) CV1 cells (5,000 cells/well) were transfected with an RAR reporter plasmid ▴MTV-TREp-LUC (50 ng) along with one of the RAR expression vectors (10 ng) in an automated 96-well format by the calcium phosphate procedure of Heyman et al. Cell 68, 397-406. (8). For RXR transactivation assays, an RXR-responsive reporter plasmid CRBP II-TK-LUC (50 ng) along with one of the RXR expression vectors (10 ng) was used substantially as described by Heyman et al. above, and Allegretto et al. J. Biol. Chem. 268, 26625-26633. (8, 9). RXR-reporter contained DRI elements from human CRBP II promoter (see Mangelsdorf et al. The Retinoids: Biology, Chemistry and Medicine, pp 319-349, Raven Press Ltd., New York and Heyman et al., cited above) (1, 8). A β-galactosidase (50 ng) expression vector was used as an internal control in the transfections to normalize for variations in transfection efficiency. The cells were transfected in triplicate for 6 hours, followed by incubation with retinoids for 36 hours, and the extracts were assayed for luciferase and β-galactosidase activities. The detailed experimental procedure for holoreceptor transactivations has been described in Heyman et al. above, and Allegretto et al. cited above. The results obtained in this assay in connection with examplary compounds in accordance with the present invention are expressed in EC50 numbers, as they are also in the chimeric receptor transactivation assay. The Heyman et al. Cell 68, 397-406, Allegretto et al. J. Biol. Chem. 268, 26625-26633, and Mangelsdorf et al. The Retinoids: Biology, Chemistry and Medicine, pp 319-349, Raven Press Ltd., New York, are expressly incorporated herein by reference. The results of ligand binding assay are expressed in KD50 numbers.

Assay [2] deals with T3, RXRα. The experiment in a line: Ligand binding assay, RXRα. The following applies: read-out: Ligand Binding Assay KD50 RXRα.
Description: as §3
as §4, with “The Heyman et al. Cell 68, 397-406, Allegretto et al. J. Biol. Chem. 268, 26625-26633, and Mangelsdorf et al. The Retinoids: Biology, Chemistry and Medicine, pp 319-349, Raven Press Ltd., New York, are expressly incorporated herein by reference. The results of ligand binding assay are expressed in KD50 numbers.” left out

As for `CC(/C=C/c1ccccc1-c1ccc2c(c1)C(C)(C)CCC2(C)C)=C\C(=O)O` [Compound 9, 3-Methyl-5-[2-(5,5,8,8,-tetramethyl-5,6,7,8-tetrahydronaphth-2-yl)phenyl]pent-2(E),4(E)-dienoic Acid], on RARα, the EC50 – broadly, the concentration that produces a half-maximal response – was more than 1000 nM and the “Transactivation Assay Afficacy (% of RA activity) RARα” value was 2.0 % of RA activity. For the same compound, at RARΓ, the EC50 was more than 1000 nM and the “Transactivation Assay Afficacy (% of RA activity) RARΓ” value is reported as 8.0 % of RA activity. Besides, at RXRα [1], the EC50 was found to be 290 nM and the “Transactivation Assay Afficacy (% of RA activity) RXRα” value was 59.0 % of RA activity.
Consider `CC(C=CC1CC1(C)c1cc2c(cc1C)C(C)(C)CCC2(C)C)=CC(=O)O` (stereo not drawn) [Compound 13, 3,7-Dimethyl,6(RS),7(SR) methano-7-(3,5,5,8,8-pentamethyl-5,6,7,8-tetrahydronaphth-2-yl),2(E),4(E)-heptadienoic Acid], for which, on RARα, the EC50 was more than 1000 nM and the “Transactivation Assay Afficacy (% of RA activity) RARα” value was 0.0 % of RA activity. Moreover, at RARΓ, the EC50 was more than 1000 nM and the “Transactivation Assay Afficacy (% of RA activity) RARΓ” value is 8.0 % of RA activity. On RXRα [1], the half-maximal effective concentration (EC50) came out at 130 nM and the “Transactivation Assay Afficacy (% of RA activity) RXRα” value was 55.0 % of RA activity. Moreover, the Kd at RXRα [2] was found to be 71 nM.
Turning to `CC(C=CC1CC1(C)c1ccc2c(c1)C(C)(C)CCS2)=CC(=O)O` (stereo not drawn) [Compound 17, 3,7-Dimethyl,6(RS),7(SR) methano-7-(4,4-dimethylthiochroman-6-yl) 2(E),4(E)-heptadienoic Acid], on RARα, the midpoint of the response, the EC50, lay at 1200 nM and the “Transactivation Assay Afficacy (% of RA activity) RARα” value is recorded as 30 % of RA activity. On RARΓ, it took 270 nM to reach a half-maximal effect (EC50) and the “Transactivation Assay Afficacy (% of RA activity) RARΓ” value is recorded as 41 % of RA activity. On RXRα [1], a half-maximal effect (EC50) was put at 30 nM and the “Transactivation Assay Afficacy (% of RA activity) RXRα” value is listed as 111 % of RA activity. Moreover, the Kd at RXRα [2] came to 3 nM.
For the compound `CC(C=CC1CC1(C)c1ccc2c(c1)C(C)(C)CCO2)=CC(=O)O` (stereo not drawn) [Compound 21, 3,7-Dimethyl,6(RS),7(SR) methano-7-(4,4-dimethyl-chroman-6-yl),2(E),4(E)-heptadienoic Acid], on RARα, the EC50 is more than 1000 nM and the “Transactivation Assay Afficacy (% of RA activity) RARα” value is 4.0 % of RA activity. For the same compound, at RARΓ, the EC50 is more than 1000 nM and the “Transactivation Assay Afficacy (% of RA activity) RARΓ” value is 14.0 % of RA activity. For the same compound, at RXRα [1], the midpoint of the response, the EC50, lay at 27 nM and the “Transactivation Assay Afficacy (% of RA activity) RXRα” value is 83.0 % of RA activity. Moreover, the Kd at RXRα [2] came to 5 nM.
